Literature values, collected in paper PMC8451327, “Paradoxical Augmentation of Experimental Spondyloarthritis by RORC Inhibition in HLA-B27 Transgenic Rats” (Frontiers in Immunology, 2021).

Tests used:
[1] = test system: ankylosing spondylitis (AS)
[2] = test system: psoriatic arthritis (PsA)
[3] = test system: normal mice; parameters: method as in PMID 30972425
[4] = test system: intestinal inflammation; parameters: method as in PMID 30972425

Compound: ixekizumab: interleukin-17A specific monoclonal antibody
- Clinical efficacy in AS [1]: proven clinical efficacy
- Clinical efficacy in PsA [2]: proven clinical efficacy

Compound: COc1ccc2c(n1)CCN(C(=O)C1CC(CC(=O)O)C1)[C@H]2C(=O)Nc1cc(F)c2c(c1)CCC2(C)C (some centres unmarked) [TAK-828F]
- Numbers of Th17 cells and ILC3s in the lamina propria [3]: did reduce
- Gene expression of IL17A, IL17F and IL-22 [4]: suppressed/decreased
- Intestinal inflammation [4]: suppressed
- Th17 and Th17/Th1 cell population in mesenteric lymph nodes [4]: significantly reduced

Compound: Secukinumab: anti-IL-17A mAb
- Signs and symptoms of ankylosing spondylitis [1]: reduced
- Signs and symptoms of psoriatic arthritis [2]: reduced
